# Key:
# [1] = Stability in the dry form at +4° C. after lyophilisation (HPLC purity over time); conditions: 250 mM in 10 mM Tris HCl pH 7.5 and 10% trehalose, lyophilised one night
# [2] = tested on: RNA amplicon (NASBA), 16S RNA of Mycobacterium tuberculosis; experiment: Labelling of RNA amplicon without interim purification, detection by hybridisation on DNA chip; conditions: label 2 mM, 3 mM HCl, no purification
# Protocol: In a 1 mL tube, the following are mixed: • 5 μL of 8 mM label solution (96/4 DMSO/Methanol).
# The nucleic acids thus labelled are not purified, but are hybridised directly.
# The labelled nucleic acids are transferred without purification into 480 μL of hybridisation buffer. The samples are hybridised on the DNA chips in the same way as for the previous example.
# [3] = tested on: RNA amplicon (NASBA), 16S RNA of Mycobacterium tuberculosis; conditions: label 2.5 mM, hybridisation at 45° C. up to 24 hrs
# Protocol: The solution is mixed by vortex then incubated for 10 minutes at 65° C.
# The labelled nucleic acids were purified on a QiaQuick (PCR purification kit, Qiagen) column using the purification protocol recommended by the manufacturer. The elution volume is 100 μL.
# After purification, the labelled nucleic acids are transferred into 400 of hybridisation buffer. The samples are hybridised on the DNA chips designed for the analysis of the “GenBank” M20940 sequence of the 16S RNA of Mycobacterium tuberculosis. […] The hybridisation stages were performed by injecting. 80 μL of the hybridisation mixture into the chip then maintaining this in a hybridisation oven at 45° C. for 0.5 hour, 2 hours, 6.5 hours or 24 hours.
# 300 μL of pure water; 300 μL of 100 mM Tris buffer pH 7/1 M NaCl/0.05% Tween 20/0.005% antifoamant; 6 μL of BSA (50 mg/mL); 6 μL of SA-PE (300 μg/mL).
# The reading of the fluorescence emitted at the surface of the DNA chip after labelling and hybridisation and the generation of data in terms of signal intensity and percentage homology are performed with the reading systems and software supplied by Affymetrix. The reading system supplies signal and background noise intensities expressed in rfu (“relative fluorescence unit”). The percentage homology is given relative to a reference sequence which in this case is the sequence of Mycobacterium tuberculosis.
# [4] = Stability in a liquid medium at ambient temperature (HPLC purity over time); assay type: physicochemical; conditions: 125 mM in 96/4 DMSO/methanol, ambient temperature (22° C.), at 10 days
Substance,stability to lyophilisation [1],background noise compared to BBP [2],percentage homology [2],specific signals (specific hybridisation) compared to BBP [2],stability of labelled amplicons in the course of hybridisation [3],purity of the initial compound [4] [%]
Pyridine Diazo Biotin [PyDB],perfectly stable,reduced background noise,higher,improved,perfectly stable,
"[Bio-EG3]2-PDAM [BBP, reference compound]",,,relatively low,,,< 10

# Reference: patent US9266902B2, “Labelling reagents having a pyridine nucleus bearing a diazomethyl function, process for synthesis of such reagents and processes for detection of biological molecules” (priority 2008, dated 2016)
